In the NIST ThermoML archive (doi:10.1016/j.jct.2019.105881):

Test: wn = mass fraction of the nth substance listed
Conditions: 100 kPa, Liquid, transient hot wire

CCCCCCCCCCCC(=O)OC [methyl dodecanoate] + CCCCCO
Conditions | thermal conductivity [W/m/K]
287.79 K, w1 = 0.6756 | 0.1488
287.86 K, w1 = 0.2997 | 0.1497
287.92 K, w1 = 0.5029 | 0.1493
288 K, w1 = 0.1021 | 0.1503
288.01 K, w1 = 0.8983 | 0.1482
297.82 K, w1 = 0.1021 | 0.1486
297.86 K, w1 = 0.5029 | 0.1475
297.95 K, w1 = 0.6756 | 0.1469
298.07 K, w1 = 0.2997 | 0.148
298.1 K, w1 = 0.8983 | 0.1456
307.72 K, w1 = 0.1021 | 0.1468
307.78 K, w1 = 0.6756 | 0.145
307.8 K, w1 = 0.5029 | 0.1453
307.84 K, w1 = 0.2997 | 0.1455
307.9 K, w1 = 0.8983 | 0.1441
317.72 K, w1 = 0.1021 | 0.1441
317.72 K, w1 = 0.2997 | 0.1435
317.8 K, w1 = 0.6756 | 0.1424
317.85 K, w1 = 0.5029 | 0.1429
317.85 K, w1 = 0.8983 | 0.1419
327.58 K, w1 = 0.1021 | 0.1422
327.68 K, w1 = 0.2997 | 0.1412
327.7 K, w1 = 0.6756 | 0.1407
327.72 K, w1 = 0.5029 | 0.141
327.87 K, w1 = 0.8983 | 0.1397
337.42 K, w1 = 0.1021 | 0.1399
337.53 K, w1 = 0.2997 | 0.139
337.67 K, w1 = 0.5029 | 0.1389
337.76 K, w1 = 0.6756 | 0.1385
337.85 K, w1 = 0.8983 | 0.1373
347.5 K, w1 = 0.2997 | 0.137
347.65 K, w1 = 0.1021 | 0.138
347.66 K, w1 = 0.5029 | 0.1368
347.7 K, w1 = 0.8983 | 0.1352
347.78 K, w1 = 0.6756 | 0.1356
357.16 K, w1 = 0.1021 | 0.1364
357.47 K, w1 = 0.2997 | 0.135
357.65 K, w1 = 0.5029 | 0.1348
357.73 K, w1 = 0.6756 | 0.1335
357.79 K, w1 = 0.8983 | 0.1332

CCCCCCCCCCCC(=O)OC [methyl dodecanoate] + CCCCO
Conditions | thermal conductivity [W/m/K]
287.91 K, w1 = 0.3009 | 0.1499
287.94 K, w1 = 0.1013 | 0.1515
287.95 K, w1 = 0.5027 | 0.1492
288.07 K, w1 = 0.6997 | 0.1488
288.14 K, w1 = 0.8996 | 0.1485
297.76 K, w1 = 0.1013 | 0.1489
297.9 K, w1 = 0.6997 | 0.1469
297.92 K, w1 = 0.5027 | 0.1471
297.95 K, w1 = 0.3009 | 0.1475
298.02 K, w1 = 0.8996 | 0.1463
307.79 K, w1 = 0.1013 | 0.1465
307.81 K, w1 = 0.3009 | 0.1457
307.83 K, w1 = 0.5027 | 0.1452
307.96 K, w1 = 0.8996 | 0.1441
307.99 K, w1 = 0.6997 | 0.1445
317.67 K, w1 = 0.3009 | 0.1434
317.75 K, w1 = 0.1013 | 0.144
317.8 K, w1 = 0.5027 | 0.1426
317.83 K, w1 = 0.8996 | 0.1422
317.88 K, w1 = 0.6997 | 0.1424
327.6 K, w1 = 0.1013 | 0.1419
327.69 K, w1 = 0.3009 | 0.1411
327.94 K, w1 = 0.5027 | 0.14
327.94 K, w1 = 0.6997 | 0.1398
328.11 K, w1 = 0.8996 | 0.139
337.45 K, w1 = 0.3009 | 0.1386
337.47 K, w1 = 0.1013 | 0.1395
337.93 K, w1 = 0.5027 | 0.1378
337.95 K, w1 = 0.8996 | 0.1371
337.96 K, w1 = 0.6997 | 0.1375
347.23 K, w1 = 0.1013 | 0.1368
347.28 K, w1 = 0.3009 | 0.1361
347.67 K, w1 = 0.6997 | 0.1354
347.73 K, w1 = 0.5027 | 0.1358
347.86 K, w1 = 0.8996 | 0.135
357.25 K, w1 = 0.3009 | 0.1333
357.28 K, w1 = 0.1013 | 0.1342
357.71 K, w1 = 0.8996 | 0.1322
357.82 K, w1 = 0.5027 | 0.133
357.87 K, w1 = 0.6997 | 0.1327

CCCCCCCCCCCC(=O)OC [methyl dodecanoate] + CCCO
Conditions | thermal conductivity [W/m/K]
287.68 K, w1 = 0.6993 | 0.1497
287.9 K, w1 = 0.298 | 0.1522
287.91 K, w1 = 0.1 | 0.1542
288 K, w1 = 0.4998 | 0.1509
288.06 K, w1 = 0.8996 | 0.1484
297.73 K, w1 = 0.6993 | 0.1473
297.79 K, w1 = 0.1 | 0.1517
297.85 K, w1 = 0.4998 | 0.1484
297.85 K, w1 = 0.8996 | 0.1467
297.93 K, w1 = 0.298 | 0.1494
307.66 K, w1 = 0.1 | 0.1492
307.76 K, w1 = 0.4998 | 0.1457
307.83 K, w1 = 0.298 | 0.1474
307.89 K, w1 = 0.8996 | 0.1445
308.03 K, w1 = 0.6993 | 0.1452
317.53 K, w1 = 0.298 | 0.1451
317.62 K, w1 = 0.1 | 0.1474
317.67 K, w1 = 0.4998 | 0.1436
317.86 K, w1 = 0.6993 | 0.1429
318.02 K, w1 = 0.8996 | 0.1422
327.34 K, w1 = 0.298 | 0.1424
327.67 K, w1 = 0.1 | 0.1446
327.67 K, w1 = 0.4998 | 0.1412
327.68 K, w1 = 0.8996 | 0.1398
328.03 K, w1 = 0.6993 | 0.1405
337.22 K, w1 = 0.1 | 0.1423
337.4 K, w1 = 0.298 | 0.14
337.64 K, w1 = 0.4998 | 0.1391
337.82 K, w1 = 0.6993 | 0.1384
337.85 K, w1 = 0.8996 | 0.1377
347.19 K, w1 = 0.1 | 0.139
347.24 K, w1 = 0.298 | 0.1374
347.52 K, w1 = 0.4998 | 0.1368
347.82 K, w1 = 0.6993 | 0.1362
347.93 K, w1 = 0.8996 | 0.135
357.25 K, w1 = 0.1 | 0.1365
357.44 K, w1 = 0.298 | 0.1351
357.79 K, w1 = 0.4998 | 0.1344
357.91 K, w1 = 0.6993 | 0.1337
357.93 K, w1 = 0.8996 | 0.1326
